Test results taken from patent US9782428B2, “Method for generation of broadly neutralizing anti-pathogen antibodies” (Northeastern University, priority 2013, dated 2017).
Entries after “also recorded” stand apart in the source; their conditions may differ.

Legend:
resting B cells = assay: In vitro class switch recombination IgM to IgG1 in resting B cells stimulated with anti-CD40 and IL-4; type: cell-based, mice; conditions: four days in culture; for class switching of IgM to IgG1: gated on B220+, vs untreated B cells
Description: Female C57 B/6 mice were sacrificed and spleens harvested and generated into single cell suspensions. Lymphocytes were isolated using Ficoll separation (GE Healthcare) and interface layer was collected after centrifugation (1000×g for 10 minutes). Cells were FC Blocked as described above and then stained with CD43 FITC (clone S7) and then washed and stained with anti-FITC microbeads (Miltenyi) at 4° C. for 30 minutes. Cells were then depleted using magnetic separation autoMACS deplete(s) program (Miltenyi). The depleted fraction was used for experiments as these consist of resting B cells.
B cells plated in a 24 well plate at 200,000 cells pre well with IMDM media, as described in Example 3 (1 ml media/well). B cells were then stimulated using anti-CD40 antibody (2.5 μg/ml clone IC-10 eBiosciences) and recombinant mouse IL-4 (10 ng/ml, R&D). […] All stimulating reagents were added at the seeding of the culture on day 0 and no other drugs were added thereafter.
After four days in culture, amount of class switch to IgG1 was determined by flow cytometric analysis by staining with anti-mouse IgM, IgG1, and B220. Plots are all gated on B220+ cells (FIG. 8A-8F)

germinal center B cells = assay: Flow cytometric analysis of germinal center B cells from immunized mice treated with CGS-21680 (Experiments 1 and 3); type: in vivo
Description: All mice were sacrificed on day 6.
All mice were sacrificed on day 21.
Flow cytometric analysis of germinal center B cells from Experiment 1 (gated as lymphocytes, B220+, Gl-7 positive, CD38 negative; FIGS. 10E and 10F) and Experiment 3 (B220 positive, Gl-7 hi, IgD-negative; FIG. 10D) was performed. The flow cytometric analysis was performed according to the protocol discussed in Example.

[1] = test system: Gs coupled protein receptor; conditions: dopamine at day 44 and day 62 plus inspiration of hyperoxic gas mixture; day 47 and day 65; vs untreated mice
Description: 12 male wild type C57 B/6 mice 10-12 weeks of age are immunized as described in Example 1. At day 21, the mice are given an immune boost of 1 μg NP-OVA with adjuvant via intraperitoneal injection. At day 42, the mice are given an immune challenge of 1 μg NP-OVA without adjuvant via tail vein injection. […] Samples at 5 days and 23 days post immune challenge (i.e., day 47 and day 65 of the assay) will be subjected to ELISA measurement for NIP-25.

[2] = Experiment 1, 5 subcutaneous injections 1 mg/kg days 4-6, sacrificed day 6

SMILES	class switching of IgM to IgG1, dependence on concentration (resting B cells; 100 nM, 1 μM, 10 μM)	class switching of IgM to IgG1 (resting B cells; 100 nM)	class switching of IgM to IgG1 (resting B cells; 1 μM)	class switching of IgM to IgG1 (resting B cells; 10 μM)	amount of class switched NP-PE binding cells (germinal center B cells; [2])	proportion of class switched IgG1 germinal center B cells (germinal center B cells; [2])	proportion of class switched IgG1 germinal center B cells (germinal center B cells; Experiment 1, 5 subcutaneous injections 1 mg/kg days 4-6, sacrificed day 6, listed as CGS-21680)	frequency of germinal center B cells (germinal center B cells; Experiment 3, 1 mg/kg subcutaneous twice daily day 8-20, sacrificed day 21, compared to control)	levels of NIP-25 [1]
CCNC(=O)[C@H]1O[C@@H](n2cnc3c(N)ncnc32)[C@H](O)[C@@H]1O [NECA, N-ethylcarboxyamidoadenosine]	class switching increases as the concentration of NECA increases	increases the class switching; also recorded: has class switching	has class switching	has class switching					
CCNC(=O)[C@H]1O[C@@H](n2cnc3c(N)nc(NCCc4ccc(CCC(=O)O)cc4)nc32)[C@H](O)[C@@H]1O [CGS21680]				has class switching	higher amount	enhanced class switching	increased proportion	decrease	
NCCc1ccc(O)c(O)c1 [dopamine]									higher levels
